Measurements reported in patent US7981867B2, “Use of des-aspartate-angiotensin I” (priority 2005, dated 2011).
Several values for one entry are separate records, joined by “and”; a condition that tells them apart may be missing. Equal entries are not always repeated. Where two headings read alike, the source gives them in different places. Marks after values point to notes of the source that are not given here.

Assays:
[1] = system: Influenza A/Aichi/2/68 virus; type: in vivo, BALB/c mice
[2] = system: Influenza A/Aichi/2/68 virus; type: in vivo, BALB/c mice; conditions: for Percentage Weight Change of Individual Mouse: i.p. 60 nmole/kg for 7 days from weight loss 15% or greater, mice 1-7 = c8-c14
[3] = oral 1200 nmole/kg given as a single dose on Day 2 (n = 9), post infection day 11

## des-aspartate-angiotensin I (RVYIHPFHL; Angiotensin-1; UniProt P01019 26-34, looked up, fragment) [endogenous angiotensin peptide derived from angiotensin I by a specific aminopeptidase; purchased from Bachem]
[1]; oral 300 nmole/kg/day for 16 days (n = 5), post infection day 0 (taken as 100%)
  Average Percentage Weight Change: 100%
[1]; oral 300 nmole/kg/day for 16 days (n = 5), post infection day 1
  Average Percentage Weight Change: 102.1 ± 1.5%
[1]; oral 300 nmole/kg/day for 16 days (n = 5), post infection day 2
  Average Percentage Weight Change: 96.2 ± 2.0%
[1]; oral 300 nmole/kg/day for 16 days (n = 5), post infection day 3
  Average Percentage Weight Change: 90.8 ± 2.4%
[1]; oral 300 nmole/kg/day for 16 days (n = 5), post infection day 4
  Average Percentage Weight Change: 85.8 ± 2.9%
[1]; oral 300 nmole/kg/day for 16 days (n = 5), post infection day 5
  Average Percentage Weight Change: 83.2 ± 3.4%
[1]; oral 300 nmole/kg/day for 16 days (n = 5), post infection day 6
  number of animals that died on the day of recording: 3
[1]; oral 300 nmole/kg/day for 16 days (n = 5), post infection day 6, two surviving mice, no SEM
  Average Percentage Weight Change: 94.1%
[1]; oral 300 nmole/kg/day for 16 days (n = 5), post infection day 7, two surviving mice, no SEM
  Average Percentage Weight Change: 95.7^# %
[1]; oral 300 nmole/kg/day for 16 days (n = 5), post infection day 8, two surviving mice, no SEM
  Average Percentage Weight Change: 97.9^# %
[1]; oral 300 nmole/kg/day for 16 days (n = 5), post infection day 9, two surviving mice, no SEM
  Average Percentage Weight Change: 98.7^# %
[1]; oral 300 nmole/kg/day for 16 days (n = 5), post infection day 10, two surviving mice, no SEM
  Average Percentage Weight Change: 98.1^# %
[1]; oral 300 nmole/kg/day for 16 days (n = 5), post infection day 11, two surviving mice, no SEM
  Average Percentage Weight Change: 97.4^# %
[1]; oral 300 nmole/kg/day for 16 days (n = 5), post infection day 12, two surviving mice, no SEM
  Average Percentage Weight Change: 96.9^# %
[1]; oral 300 nmole/kg/day for 16 days (n = 5), post infection day 13, two surviving mice, no SEM
  Average Percentage Weight Change: 96.8^# %
[1]; oral 300 nmole/kg/day for 16 days (n = 5), post infection day 14, two surviving mice, no SEM
  Average Percentage Weight Change: 98.2^# %
[1]; oral 300 nmole/kg/day for 16 days (n = 5), post infection day 15, two surviving mice, no SEM
  Average Percentage Weight Change: 99.6^# %
[1]; oral 300 nmole/kg/day for 16 days (n = 5), post infection day 16, two surviving mice, no SEM
  Average Percentage Weight Change: 102.4^# %
[1]; oral 600 nmole/kg administered daily for 8 days
  antiviral activity (attenuation of weight loss, survival): Effective antiviral activity
[1]; oral 600 nmole/kg/day for 16 days (n = 9), post infection day 0 (taken as 100%)
  Average Percentage Weight Change: 100%
[1]; oral 600 nmole/kg/day for 16 days (n = 9), post infection day 1
  Average Percentage Weight Change: 98.7 ± 1.3%
[1]; oral 600 nmole/kg/day for 16 days (n = 9), post infection day 2
  Average Percentage Weight Change: 95.8 ± 1.4%
[1]; oral 600 nmole/kg/day for 16 days (n = 9), post infection day 3
  Average Percentage Weight Change: 92.0 ± 1.7%
[1]; oral 600 nmole/kg/day for 16 days (n = 9), post infection day 4
  Average Percentage Weight Change: 92.4 ± 1.8 %
[1]; oral 600 nmole/kg/day for 16 days (n = 9), post infection day 5
  Average Percentage Weight Change: 94.8 ± 1.8 %
[1]; oral 600 nmole/kg/day for 16 days (n = 9), post infection day 6
  Average Percentage Weight Change: 95.5 ± 2.1 %
[1]; oral 600 nmole/kg/day for 16 days (n = 9), post infection day 7
  Average Percentage Weight Change: 97.8 ± 2.6 %
[1]; oral 600 nmole/kg/day for 16 days (n = 9), post infection day 8
  Average Percentage Weight Change: 96.7 ± 2.9%
[1]; oral 600 nmole/kg/day for 16 days (n = 9), post infection day 9
  Average Percentage Weight Change: 96.3 ± 3.5%
[1]; oral 600 nmole/kg/day for 16 days (n = 9), post infection day 10
  Average Percentage Weight Change: 95.6 ± 4.0%
[1]; oral 600 nmole/kg/day for 16 days (n = 9), post infection day 11
  Average Percentage Weight Change: 95.4 ± 4.5%
[1]; oral 600 nmole/kg/day for 16 days (n = 9), post infection day 12
  Average Percentage Weight Change: 95.1 ± 5.0%
[1]; oral 600 nmole/kg/day for 16 days (n = 9), post infection day 13
  Average Percentage Weight Change: 95.5 ± 5.2%
[1]; oral 600 nmole/kg/day for 16 days (n = 9), post infection day 14
  Average Percentage Weight Change: 99.1 ± 3.4%
[1]; oral 600 nmole/kg/day for 16 days (n = 9), post infection day 15
  Average Percentage Weight Change: 100.3 ± 4.2%
[1]; oral 600 nmole/kg/day for 16 days (n = 9), post infection day 16
  Average Percentage Weight Change: 97.0 ± 4.8%
[1]; oral 1200 nmole/kg given as a single dose on Day 2 (n = 9), post infection day 0 (taken as 100%)
  Average Percentage Weight Change: 100%
[1]; oral 1200 nmole/kg given as a single dose on Day 2 (n = 9), post infection day 1
  Average Percentage Weight Change: 103.5 ± 0.5%
[1]; oral 1200 nmole/kg given as a single dose on Day 2 (n = 9), post infection day 2
  Average Percentage Weight Change: 96.8 ± 0.6%
[1]; oral 1200 nmole/kg given as a single dose on Day 2 (n = 9), post infection day 3
  Average Percentage Weight Change: 95.1 ± 0.8 %
[1]; oral 1200 nmole/kg given as a single dose on Day 2 (n = 9), post infection day 4
  Average Percentage Weight Change: 96.7 ± 1.2 %
[1]; oral 1200 nmole/kg given as a single dose on Day 2 (n = 9), post infection day 5
  Average Percentage Weight Change: 96.3 ± 2.1 %
[1]; oral 1200 nmole/kg given as a single dose on Day 2 (n = 9), post infection day 6
  Average Percentage Weight Change: 95.7 ± 3.1 %
[1]; oral 1200 nmole/kg given as a single dose on Day 2 (n = 9), post infection day 7
  Average Percentage Weight Change: 97.8 ± 4.0 %
[1]; oral 1200 nmole/kg given as a single dose on Day 2 (n = 9), post infection day 8
  Average Percentage Weight Change: 98.3 ± 4.3%
[1]; oral 1200 nmole/kg given as a single dose on Day 2 (n = 9), post infection day 9
  Average Percentage Weight Change: 101.1 ± 4.7%
[1]; oral 1200 nmole/kg given as a single dose on Day 2 (n = 9), post infection day 10
  Average Percentage Weight Change: 101.1 ± 4.8%
[1]; [3]
  Average Percentage Weight Change: 105.9 ± 1.3%
  number of animals that died on the day of recording: 1
[1]; oral 1200 nmole/kg given as a single dose on Day 2 (n = 9), post infection day 12
  Average Percentage Weight Change: 106.1 ± 1.3%
[1]; oral 1200 nmole/kg given as a single dose on Day 2 (n = 9), post infection day 13
  Average Percentage Weight Change: 108.1 ± 1.2%
[1]; oral 1200 nmole/kg given as a single dose on Day 2 (n = 9), post infection day 14
  Average Percentage Weight Change: 107.2 ± 1.3%
[1]; oral 1200 nmole/kg given as a single dose on Day 2 (n = 9), post infection day 15
  Average Percentage Weight Change: 109.4 ± 1.2%
[1]; oral 1200 nmole/kg given as a single dose on Day 2 (n = 9), post infection day 16
  Average Percentage Weight Change: 108.4 ± 1.5%
[1]; oral single dose of 1200 nmole/kg given on Day 2
  antiviral activity (attenuation of weight loss, survival): Effective antiviral activity
[2]; post infection day 2
  Percentage Weight Change of Individual Mouse: 96.3% and 97.1% and 96.6% and 97.3% and 95.8% and 99.3% and 99.8%
[2]; post infection day 3
  Percentage Weight Change of Individual Mouse: 90.3% and 94.6% and 88.6% and 94.7% and 93.9% and 99.4% and 99.0%
[2]; post infection day 4
  Percentage Weight Change of Individual Mouse: 85.7% and 86.2% and 83.3% and 92.1% and 90.8% and 97.5% and 96.6%
[2]; post infection day 5
  Percentage Weight Change of Individual Mouse: 82.8% and 85.7% and 81.0% and 90.1% and 89.0% and 90.3% and 91.7%
[2]; post infection day 6
  Percentage Weight Change of Individual Mouse: 80.8% and 82.7% and 78.2% and 85.2% and 88.8% and 87.5% and 87.4%
[2]; post infection day 7
  Percentage Weight Change of Individual Mouse: 80.7% and 76.8% and 73.9% and 82.8% and 84.4% and 85.0% and 83.8%
[2]; post infection day 8
  Percentage Weight Change of Individual Mouse: 79.7% and 72.9% and 71.2% and 83.2% and 82.4% and 86.2% and 80.4%
[2]; post infection day 9
  Percentage Weight Change of Individual Mouse: 81.4% and 69.9% and 71.8% and 80.5% and 78.6% and 90.3% and 78.8%
[2]; post infection day 10
  Percentage Weight Change of Individual Mouse: 80.5% and 69.0% and 73.2% and 82.3% and 77.7% and 93.0% and 77.5%
[2]; post infection day 11
  Percentage Weight Change of Individual Mouse: 82.1% and 67.7% and 75.8% and 88.9% and 74.5% and 99.3% and 77.1%
[2]; post infection day 12
  Percentage Weight Change of Individual Mouse: 80.0% and 64.9% and 80.1% and 88.9% and 74.5% and 101.2% and 78.9%
[2]; post infection day 13
  Percentage Weight Change of Individual Mouse: 76.6% and 63.0% and 82.8% and 97.4% and 72.3% and 80.8%
[2]; post infection day 14
  Percentage Weight Change of Individual Mouse: 75.2% and 61.3% and 86.3% and 102.8% and 74.0% and 82.6%
[2]; post infection day 15
  Percentage Weight Change of Individual Mouse: 83.0% and 58.9% and 90.1% and 76.7% and 84.3%
[2]; post infection day 16
  Percentage Weight Change of Individual Mouse: 90.3% and 58.9% and 94.6% and 78.6% and 89.4%
[2]; post infection day 17
  Percentage Weight Change of Individual Mouse: 93.5%
[2]; i.p. 60 nmole/kg for 7 days, 7 treated animals
  animals survived and regained their original weight: Six
[2]; i.p. 60 nmole/kg for 7 days, assayed in MDCK cells
  influenza A virus in the lung homogenate of the surviving mice: No influenza A virus was detected
[2]; i.p. 60 nmole/kg for 7 days, treated mouse 4, post infection day 18
  Fate of individual mouse (death): died
